From article PMC9098913, “In vitro reconstitution of Escherichia coli divisome activation” (Nature Communications, 2022)
Like-named read-outs stand apart in the source and are kept apart here.

Legend:
[1] = tested on: FtsZ; settings: His-tagged FtsA
Procedure: (§1) Co-treadmilling of FtsA with FtsZ relies on the dynamic exchange of FtsA on the membrane. […] To investigate the respective contributions of membrane binding kinetics and FtsA self-interaction on the colocalization dynamics with FtsZ, we wanted to create variants of the two FtsA proteins that are permanently attached to the membrane. […] Accordingly, in these experiments the proteins only differ in their tendency to form oligomers.
(§2) To study colocalization of His-tagged variants of FtsA, 0.5–1 µM of Cy5 labelled His-tagged FtsAs were added to the chamber, incubated for 20 min and washed 6x with reaction buffer. […] To control the density of membrane-bound FtsA, SUVs without and with Tris-NTA lipids were mixed to obtain the respective Tris-NTA concentrations. To perform FRET/FRAP experiments, equimolar concentrations of Cy3 and Cy5 labelled His-tagged FtsAs (total 0.5–1 µM) or His-SUMO-Cys were added to a chamber and treated as above. […] FRAP experiments were performed as described before.
Time-lapse videos were first intensity-corrected and contrast-enhanced to avoid bleaching effects and simplify subsequent analysis. To remove contributions of X–Y drift, the videos were processed with the Linear Stack Alignment with SIFT plugin. Proper alignment was checked with the 3TP align plugin (J. A. Parker; Beth Israel Deaconess Medical Center, Boston). Subsequently, regions of interest (ROIs) in the center of the stacks were chosen for colocalization analysis. The Pearson’s correlation coefficient (PCC) was quantified with the Image CorrelationJ 1o plugin. To extract information about the relative ratio of FtsZ/FtsA molecules (slope of linear regression), we also used the Image CorrelationJ 1o plugin. As an output, the plugin provides a scatterplot of FtsZ vs FtsA intensities, to which we fitted a linear slope y=k⋅x+d , where k is the slope and d the offset. The slope was used as an estimate for the ratio of FtsA molecules below FtsZ filaments.

[2] = Membrane off-binding rate (koff) of FtsA from FRAP
Text: We could also use the data from these bleaching experiments to quantify the membrane-binding kinetics and diffusion of membrane-bound proteins by analysing the change of the fluorescence profile during recovery.
Equimolar concentrations of Cy3- and Cy5-labelled FtsA, supplemented with 20% unlabelled FtsA were used to study FRET and FRAP. Five pre-bleach frames were acquired, followed by acceptor photobleaching of a rectangular ROI with 40% 641 nm laser power and a dwell size of 1 µs/pixel, 75% overlapping lines. The recovery of the signal or the increase in donor intensity were measured with either two frames or one frame per second.
Bleaching the acceptor dye leads to an increase in the donor intensity, which can be used to quantify the Foerster Resonance energy transfer (FRET)[48]. FRET efficiency was quantified with E%=Ipost/Ipost+Ipre⋅100 , where Ipost is the intensity of the […] and Ipre is the […]. […] To extract the contribution of both processes, we adjusted a routine recently published by Gerganova et al.[33]. In short, the code provides the contribution of both modes of recovery by analysing the shape of the fluorescence recovery profile. […] Contribution of diffusion leads to a change of the slope of the outer borders of the bleached region (S4h right). Thus, by measuring the change of the slope of the border recovery, diffusion and simple on/off binding can be distinguished. We developed “FRAPdiff”, a graphical user interface, which uses the original fit routine by David Rutkowski. It can be used directly on.tiff movies with annotated bleach regions as ImageJ ROIs. In addition, we added optional bleach correction, user selectable projection axis (x or y), and optional mirroring of the recovery profiles, if bleaching was not symmetric. The original fit routine for estimating the recovery and diffusion dynamics can be found at https://github.com/davidmrutkowski/1DReflectingDiffusion. FRAPdiff is available at 10.5281/zenodo.6400639[49] under the GPLv3 open-source license.

[3] = tested on: FtsZ; settings: His-tagged FtsA; remark: listed apart in the source
Procedure: as §1, §2
Treadmilling dynamics, were quantified using an automated image analysis protocol previously developed by our group. To visualize colocalization of the co-treadmilling FtsZ & FtsA filaments, we used dual-colour videos obtained at an acquisition rate of one frame per 2 s. The two channels were aligned using FIJI’s 3TP align plugin. Both channels were then subjected to the image subtraction protocol and colocalization was measured as described above.

[4] = 0.60% Tris NTA, Exp. 1 (statistical analysis)
[5] = 0.60% Tris NTA, Exp. 2 (statistical analysis)
[6] = 0.80% Tris NTA, Exp. 1 (statistical analysis)
[7] = 0.80% Tris NTA, Exp. 3 (statistical analysis)
[8] = 1.00% Tris NTA, Exp. 1 (statistical analysis)
[9] = 1.00% Tris NTA, Exp. 2 (statistical analysis)
[10] = 1.00% Tris NTA, Exp. 3 (statistical analysis)
[11] = 2.00% Tris NTA, Exp. 1 (statistical analysis)
[12] = 2.00% Tris NTA, Exp. 2 (statistical analysis)
[13] = 2.00% Tris NTA, Exp. 3 (statistical analysis)
[14] = […] Tris NTA, Exp. 1 (statistical analysis)
[15] = […] Tris NTA, Exp. 2 (statistical analysis)
[16] = […] Tris NTA, Exp. 3 (statistical analysis)

## FtsA WT: wild-type E. coli actin-homologue FtsA, membrane anchor of FtsZ
[1]; [4]
  PCC: 0.58
[1]; [5]
  PCC: 0.73
[1]; 0.60% Tris NTA, n = 2 (WT), 3 (R286W), sd 0.07, 0.08, p-value 0.39
  PCC, Mean: 0.65
[1]; [6]
  PCC: 0.66
[1]; 0.80% Tris NTA, Exp. 2 (statistical analysis)
  PCC: 0.70
[1]; [7]
  PCC: 0.68
[1]; 0.80% Tris NTA, n = 3, 3, sd 0.0141 (WT), 0.0648 (R286W), p-value 0.61
  PCC, Mean: 0.68
[1]; [8]
  PCC: 0.53
[1]; [9]
  PCC: 0.60
[1]; [10]
  PCC: 0.73
[1]; 1.00% Tris NTA, Exp. 4 (statistical analysis)
  PCC: 0.53
[1]; 1.00% Tris NTA, n = 4 (WT), 3 (R286W), sd 0.08, 0.0316, p-value 6.25E-02
  PCC, Mean: 0.60
[1]; [11]
  PCC: 0.12
[1]; [12]
  PCC: 0.14
[1]; [13]
  PCC: 0.16
[1]; 2.00% Tris NTA, n = 3, 3, sd 0.0143 (WT), 0.04 (R286W), p-value 1.59E-04
  PCC, Mean: 0.14
[1]; [14]
  PCC: 0.16
[1]; [15]
  PCC: 0.0429
[1]; [16]
  PCC: 0.18
[1]; […] Tris NTA, n = 3, 3, sd 0.06 (WT), 0.02 (R286W), p-value 3.86E-04
  PCC, Mean: 0.13
[2]; 0.1 µM FtsA + FtsN&Z
  Off binding rate, mean: 0.018 s
[2]; 0.1 µM FtsA + FtsN
  Off binding rate, mean: 0.032 s
[2]; 0.1 µM FtsA + FtsZ
  Off binding rate, mean: 0.0428 s
[2]; 0.1 µM FtsA alone
  Off binding rate, mean: 0.0544 s
[2]; 0.2 µM FtsA + FtsN&Z
  Off binding rate, mean: 0.0128 s
[2]; 0.2 µM FtsA + FtsN
  Off binding rate, mean: 0.026 s
[2]; 0.2 µM FtsA + FtsZ
  Off binding rate, mean: 0.0502 s
[2]; 0.2 µM FtsA alone
  Off binding rate, mean: 0.0443 s
[2]; 0.4 µM FtsA + FtsN&Z
  Off binding rate, mean: 0.0174 s
[2]; 0.4 µM FtsA + FtsN
  Off binding rate, mean: 0.0196 s
[2]; 0.4 µM FtsA + FtsZ
  Off binding rate, mean: 0.0502 s
[2]; 0.4 µM FtsA alone
  Off binding rate, mean: 0.0375 s
[2]; 0.4 µM FtsA, p-value 6.73 × 10^−6
  membrane exchange (off-rate): 0.04 ± 0.01 s⁻¹
[2]; 0.8 µM FtsA + FtsN&Z
  Off binding rate, mean: 0.0278 s
[2]; 0.8 µM FtsA + FtsN
  Off binding rate, mean: 0.0277 s
[2]; 0.8 µM FtsA + FtsZ
  Off binding rate, mean: 0.0562 s
[2]; 0.8 µM FtsA alone
  Off binding rate, mean: 0.0396 s
[2]; Fig. S3i/S3j, 0.10 µM FtsA, replicate 1
  Off binding rate: 0.0471 s⁻¹
[2]; Fig. S3i/S3j, 0.10 µM FtsA, replicate 2
  Off binding rate: 0.024 s⁻¹
[2]; Fig. S3i/S3j, 0.10 µM FtsA, replicate 3
  Off binding rate: 0.0306 s⁻¹
[2]; Fig. S3i/S3j, 0.10 µM FtsA, replicate 4
  Off binding rate: 0.0374 s⁻¹
[2]; Fig. S3i/S3j, 0.10 µM FtsA, summary value
  Off binding rate: 0.0544 s⁻¹
[2]; Fig. S3i/S3j, 0.20 µM FtsA, summary value
  Off binding rate: 0.0443 s⁻¹
[2]; Fig. S3i/S3j, 0.40 µM FtsA, summary value
  Off binding rate: 0.0375 s⁻¹
[2]; Fig. S3i/S3j, 0.80 µM FtsA, summary value
  Off binding rate: 0.0396 s⁻¹
[2]; Fig. S3m, AMP PNP, 0.10 µM FtsA, replicate 1
  Off binding rate: 0.0505 s⁻¹
[2]; Fig. S3m, AMP PNP, 0.10 µM FtsA, replicate 2
  Off binding rate: 0.0348 s⁻¹
[2]; Fig. S3m, AMP PNP, 0.20 µM FtsA, replicate 1
  Off binding rate: 0.0493 s⁻¹
[2]; Fig. S3m, AMP PNP, 0.20 µM FtsA, replicate 2
  Off binding rate: 0.0628 s⁻¹
[2]; Fig. S3m, AMPPNP, 0.10 µM FtsA, summary value
  Off binding rate: 0.04 s⁻¹
[2]; Fig. S3m, AMPPNP, 0.20 µM FtsA, summary value
  Off binding rate: 0.06 s⁻¹
[2]; Fig. S3m, AMPPNP, 0.40 µM FtsA, summary value
  Off binding rate: 0.08 s⁻¹
[2]; Fig. S3m, AMPPNP, 0.80 µM FtsA, summary value
  Off binding rate: 0.06 s⁻¹
[2]; Fig. S3m, ATP, 0.10 µM FtsA, summary value
  Off binding rate: 0.05 s⁻¹
[2]; Fig. S3m, ATP, 0.20 µM FtsA, summary value
  Off binding rate: 0.04 s⁻¹
[2]; Fig. S3m, ATP, 0.40 µM FtsA, summary value
  Off binding rate: 0.04 s⁻¹
[2]; Fig. S3m, ATP, 0.80 µM FtsA, summary value
  Off binding rate: 0.04 s⁻¹
[2]; Fig. S3m, ATPgS, 0.10 µM FtsA, summary value
  Off binding rate: 0.0254 s⁻¹
[2]; Fig. S3m, ATPgS, 0.20 µM FtsA, summary value
  Off binding rate: 0.0233 s⁻¹
[2]; Fig. S3m, ATPgS, 0.40 µM FtsA, summary value
  Off binding rate: 0.0157 s⁻¹
[2]; Fig. S3m, ATPgS, 0.80 µM FtsA, summary value
  Off binding rate: 0.0252 s⁻¹
[2]; in the presence of FtsZ
  membrane off-rate: ~0.05 s⁻¹
  time bound relative to FtsZ monomers (times longer): 2–4 times
[3]; [4]
  Differential PCC: 0.51
[3]; [5]
  Differential PCC: 0.47
[3]; 0.60% Tris NTA, n = 2 (WT), 3 (R286W), sd 0.02, 0.057, p-value 0.67
  Differential PCC, Mean: 0.49
[3]; [6]
  Differential PCC: 0.49
[3]; [7]
  Differential PCC: 0.47
[3]; 0.80% Tris NTA, n = 3, 3, sd 0.05 (WT), 0.0749 (R286W), p-value 0.13
  Differential PCC, Mean: 0.45
[3]; [8]
  Differential PCC: 0.49
[3]; [9]
  Differential PCC: 0.28
[3]; [10]
  Differential PCC: 0.23
[3]; 1.00% Tris NTA, n = 3, 3, sd 0.12 (WT), 0.0377 (R286W), p-value 5.89E-02
  Differential PCC, Mean: 0.33
[3]; [11]
  Differential PCC: 0.06
[3]; [12]
  Differential PCC: 0.14
[3]; [13]
  Differential PCC: 0.0238
[3]; 2.00% Tris NTA, n = 3, 3, sd 0.0469 (WT), 0.04 (R286W), p-value 2.27E-03
  Differential PCC, Mean: 0.0739
[3]; [14]
  Differential PCC: 0.05
[3]; [15]
  Differential PCC: 0.035
[3]; [16]
  Differential PCC: 0.12
[3]; […] Tris NTA, n = 3, 3, sd 0.0371 (WT), 0.02 (R286W), p-value 5.70E-04
  Differential PCC, Mean: 0.07
